Drawing on PMC4047469 (Molecular & Cellular Proteomics : MCP, 2014), this text covers IC50, autophosphorylation immunoblot and Ki for one compound.

The IC50 is the midpoint of a concentration-inhibition curve. Higher therefore signals a need for much substance. For orientation: Ki means a dissociation constant, usually derived from enzyme kinetics or from competition with a known ligand. Higher therefore signals a looser hold on the target.

One assay concerns the target FGFR2 (Homo sapiens, UniProt P21802). Description: in vitro kinase assay. In kind it is biochemical.
The target in a further assay is T1, DDR2 (Homo sapiens, UniProt Q16832).
T1 sequence (Q16832 22-855): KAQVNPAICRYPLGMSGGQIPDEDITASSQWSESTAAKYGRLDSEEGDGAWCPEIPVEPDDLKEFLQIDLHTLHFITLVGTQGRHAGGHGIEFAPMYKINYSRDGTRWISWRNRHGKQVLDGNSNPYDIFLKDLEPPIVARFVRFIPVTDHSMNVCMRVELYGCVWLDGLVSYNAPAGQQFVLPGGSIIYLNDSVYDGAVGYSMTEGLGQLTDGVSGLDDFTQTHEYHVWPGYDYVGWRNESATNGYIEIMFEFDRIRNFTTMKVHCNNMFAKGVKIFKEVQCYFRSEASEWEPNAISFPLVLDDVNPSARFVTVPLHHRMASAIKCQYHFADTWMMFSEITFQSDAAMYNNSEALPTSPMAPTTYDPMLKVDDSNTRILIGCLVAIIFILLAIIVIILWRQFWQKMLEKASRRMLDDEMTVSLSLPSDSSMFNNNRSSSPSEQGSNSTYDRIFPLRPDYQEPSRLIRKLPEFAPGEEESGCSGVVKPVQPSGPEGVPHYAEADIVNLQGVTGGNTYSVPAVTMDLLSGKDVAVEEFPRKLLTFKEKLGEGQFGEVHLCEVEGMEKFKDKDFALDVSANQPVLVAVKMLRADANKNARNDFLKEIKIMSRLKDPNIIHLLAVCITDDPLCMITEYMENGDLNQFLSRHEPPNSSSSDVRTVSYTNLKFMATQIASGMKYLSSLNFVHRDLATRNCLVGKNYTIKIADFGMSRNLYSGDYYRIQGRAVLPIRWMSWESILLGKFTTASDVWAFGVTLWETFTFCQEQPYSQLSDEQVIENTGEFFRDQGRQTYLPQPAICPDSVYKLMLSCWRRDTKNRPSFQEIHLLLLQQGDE
Description: autophosphorylation immunoblot. Type of assay: cell-based. The note with it: 293T cells, collagen I 20 μg/ml, 120 min; E-3810 2, 8, 32 μM.

In another assay the target is SRC (Homo sapiens, UniProt P12931). The experiment in a line: radiometric filter-binding kinase assay. Type of assay: biochemical.

The structures appear in SMILES notation.

Sequence of SRC (P12931 2-536): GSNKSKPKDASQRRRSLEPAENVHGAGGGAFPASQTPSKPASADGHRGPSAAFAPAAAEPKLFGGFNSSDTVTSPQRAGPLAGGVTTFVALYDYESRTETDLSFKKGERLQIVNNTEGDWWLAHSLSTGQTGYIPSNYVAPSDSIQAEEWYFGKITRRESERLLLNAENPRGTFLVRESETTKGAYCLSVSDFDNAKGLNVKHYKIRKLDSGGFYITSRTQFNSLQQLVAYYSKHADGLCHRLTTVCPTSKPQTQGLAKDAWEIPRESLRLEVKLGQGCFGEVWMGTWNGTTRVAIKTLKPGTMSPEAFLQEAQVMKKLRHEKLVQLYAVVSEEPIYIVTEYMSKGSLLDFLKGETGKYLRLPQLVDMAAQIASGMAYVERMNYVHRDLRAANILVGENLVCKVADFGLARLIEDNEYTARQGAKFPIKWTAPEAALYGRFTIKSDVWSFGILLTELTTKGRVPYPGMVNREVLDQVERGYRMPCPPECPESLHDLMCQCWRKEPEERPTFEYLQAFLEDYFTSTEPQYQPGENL
Sequence of FGFR2 (P21802 22-821): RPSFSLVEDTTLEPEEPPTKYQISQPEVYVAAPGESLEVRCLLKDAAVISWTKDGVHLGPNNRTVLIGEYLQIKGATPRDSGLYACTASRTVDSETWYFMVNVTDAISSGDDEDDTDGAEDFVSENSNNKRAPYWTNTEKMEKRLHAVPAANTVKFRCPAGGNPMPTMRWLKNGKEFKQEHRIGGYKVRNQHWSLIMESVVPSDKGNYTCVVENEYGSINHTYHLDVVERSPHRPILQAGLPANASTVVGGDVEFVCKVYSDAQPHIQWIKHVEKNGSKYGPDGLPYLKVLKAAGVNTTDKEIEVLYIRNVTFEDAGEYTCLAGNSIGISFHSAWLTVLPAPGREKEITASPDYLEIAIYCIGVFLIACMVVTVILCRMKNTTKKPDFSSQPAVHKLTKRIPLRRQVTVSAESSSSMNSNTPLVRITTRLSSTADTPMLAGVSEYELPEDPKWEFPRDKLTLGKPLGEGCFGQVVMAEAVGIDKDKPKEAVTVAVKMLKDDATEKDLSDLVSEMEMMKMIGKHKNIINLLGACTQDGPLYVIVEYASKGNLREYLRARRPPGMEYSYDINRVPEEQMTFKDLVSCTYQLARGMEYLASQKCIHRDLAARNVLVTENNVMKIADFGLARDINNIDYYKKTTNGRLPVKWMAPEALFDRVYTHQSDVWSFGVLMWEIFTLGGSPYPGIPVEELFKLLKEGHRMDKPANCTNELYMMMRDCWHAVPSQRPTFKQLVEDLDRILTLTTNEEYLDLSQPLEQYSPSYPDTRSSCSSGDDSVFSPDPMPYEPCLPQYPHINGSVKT

On FGFR2, `CNC(=O)c1cccc2cc(Oc3ccnc4cc(OCC5(N)CC5)c(OC)cc34)ccc12` [compound 1, E-3810] displayed an IC50 of 77 nM. At DDR2, the autophosphorylation immunoblot result was “increasing concentrations of E-3810 resulted in the reduction of DDR2 autophosphorylation”. The Ki at SRC is > 50000 nM.
